Data reported in ChEMBL document CHEMBL3885881, “DrugMatrix”.

Species on record: Rattus norvegicus
Test: DrugMatrix - Regimen: Daily Repeat
Format: toxicity, organism-based, Sprague-Dawley
Set-up: regimen Daily Repeat, gender Male, age 6-8 weeks
Conditions: in vivo, po, route oral GAVAGE, vehicle 100 % WATER; for ABSOLUTE BASOPHIL / ABSOLUTE EOSINOPHIL / ABSOLUTE LYMPHOCYTE / ABSOLUTE MONOCYTE / ABSOLUTE SEGMENTED NEUTROPHIL / BASOPHIL / EOSINOPHIL / ERYTHROCYTE COUNT / HEMATOCRIT / HEMOGLOBIN / LEUKOCYTE COUNT / LYMPHOCYTE / MEAN CORPUSCULAR HEMOGLOBIN / MEAN CORPUSCULAR HEMOGLOBIN CONCENTRATION / MEAN CORPUSCULAR VOLUME / MONOCYTE / NEUTROPHIL / NUCLEATED RED BLOOD CELLS / PLATELET COUNT: tissue Blood; for ALANINE AMINOTRANSFERASE / ALBUMIN / ALKALINE PHOSPHATASE / ASPARTATE AMINOTRANSFERASE / BLOOD UREA NITROGEN / CARBON DIOXIDE / CHLORIDE / CHOLESTEROL / CREATINE PHOSPHOKINASE / CREATININE / GLUCOSE / LACTATE DEHYDROGENASE / LIPASE / PHOSPHORUS / POTASSIUM / SODIUM / TOTAL BILIRUBIN / TOTAL PROTEIN / URIC ACID: tissue Plasma
[1] = 0 mg/kg, 72 h, dose level Control, time 3 day
[2] = 0 mg/kg, 120 h, dose level Control, time 5 day
[3] = 27 mg/kg, 72 h, dose level Low, time 3 day

CNNCc1ccc(C(=O)NC(C)C)cc1 [PROCARBAZINE]
ABSOLUTE BASOPHIL [1]: 0 CELLS/uL
ABSOLUTE EOSINOPHIL [1]: 0 CELLS/uL
ABSOLUTE LYMPHOCYTE [1]: 7802.17 CELLS/uL
ABSOLUTE MONOCYTE [1]: 13.5 CELLS/uL
ABSOLUTE SEGMENTED NEUTROPHIL [1]: 617.67 CELLS/uL
BASOPHIL [1]: 0%
EOSINOPHIL [1]: 0%
ERYTHROCYTE COUNT [1]: 5.35 x10E6/uL
HEMATOCRIT [1]: 33.02%
HEMOGLOBIN [1]: 12.88 G/DL
LEUKOCYTE COUNT [1]: 8.43 x10E3/uL
LYMPHOCYTE [1]: 92.67%
MEAN CORPUSCULAR HEMOGLOBIN [1]: 24.12 pg
MEAN CORPUSCULAR HEMOGLOBIN CONCENTRATION [1]: 39.03 G/DL
MEAN CORPUSCULAR VOLUME [1]: 61.8 fL
MONOCYTE [1]: 0.17%
NEUTROPHIL [1]: 7.17%
NUCLEATED RED BLOOD CELLS [1]: 0 /100WBC
PLATELET COUNT [1]: 1124.83 x10E3/uL
ALANINE AMINOTRANSFERASE [1]: 54.17 u/L
ALBUMIN [1]: 4.07 G/DL
ALKALINE PHOSPHATASE [1]: 383.83 u/L
ASPARTATE AMINOTRANSFERASE [1]: 82.17 u/L
BLOOD UREA NITROGEN [1]: 13.67 mg/dL
CARBON DIOXIDE [1]: 31 mmol/L
CHLORIDE [1]: 100.83 MEQ/L
CHOLESTEROL [1]: 65.17 mg/dL
CREATINE PHOSPHOKINASE [1]: 228.33 u/L
CREATININE [1]: 0.12 mg/dL
GLUCOSE [1]: 148 mg/dL
LACTATE DEHYDROGENASE [1]: 97.83 u/L
LIPASE [1]: 9.17 u/L
PHOSPHORUS [1]: 9.75 mg/dL
POTASSIUM [1]: 5.85 MEQ/L
SODIUM [1]: 147.02 MEQ/L
TOTAL BILIRUBIN [1]: 0.18 mg/dL
TOTAL PROTEIN [1]: 6.1 G/DL
URIC ACID [1]: 0.5 mg/dL
ABSOLUTE BASOPHIL [2]: 0 CELLS/uL
ABSOLUTE EOSINOPHIL [2]: 0 CELLS/uL
ABSOLUTE LYMPHOCYTE [2]: 10538 CELLS/uL
ABSOLUTE MONOCYTE [2]: 15.83 CELLS/uL
ABSOLUTE SEGMENTED NEUTROPHIL [2]: 762.83 CELLS/uL
BASOPHIL [2]: 0%
EOSINOPHIL [2]: 0%
ERYTHROCYTE COUNT [2]: 5.49 x10E6/uL
HEMATOCRIT [2]: 34.63%
HEMOGLOBIN [2]: 13.72 G/DL
LEUKOCYTE COUNT [2]: 11.32 x10E3/uL
LYMPHOCYTE [2]: 92.67%
MEAN CORPUSCULAR HEMOGLOBIN [2]: 24.97 pg
MEAN CORPUSCULAR HEMOGLOBIN CONCENTRATION [2]: 39.57 G/DL
MEAN CORPUSCULAR VOLUME [2]: 63.05 fL
MONOCYTE [2]: 0.17%
NEUTROPHIL [2]: 7.17%
NUCLEATED RED BLOOD CELLS [2]: 0.17 /100WBC
PLATELET COUNT [2]: 802 x10E3/uL
ALANINE AMINOTRANSFERASE [2]: 50.5 u/L
ALBUMIN [2]: 4.07 G/DL
ALKALINE PHOSPHATASE [2]: 336.83 u/L
ASPARTATE AMINOTRANSFERASE [2]: 81 u/L
BLOOD UREA NITROGEN [2]: 14.17 mg/dL
CARBON DIOXIDE [2]: 32 mmol/L
CHLORIDE [2]: 98.33 MEQ/L
CHOLESTEROL [2]: 69.17 mg/dL
CREATINE PHOSPHOKINASE [2]: 253.33 u/L
CREATININE [2]: 0.13 mg/dL
GLUCOSE [2]: 153.67 mg/dL
LACTATE DEHYDROGENASE [2]: 157 u/L
LIPASE [2]: 9 u/L
PHOSPHORUS [2]: 10.78 mg/dL
POTASSIUM [2]: 6.11 MEQ/L
SODIUM [2]: 144.57 MEQ/L
TOTAL BILIRUBIN [2]: 0.15 mg/dL
TOTAL PROTEIN [2]: 6.05 G/DL
URIC ACID [2]: 0.73 mg/dL
ABSOLUTE BASOPHIL [3]: 0 CELLS/uL
ABSOLUTE EOSINOPHIL [3]: 0 CELLS/uL
ABSOLUTE LYMPHOCYTE [3]: 5898 CELLS/uL
ABSOLUTE MONOCYTE [3]: 47.67 CELLS/uL
ABSOLUTE SEGMENTED NEUTROPHIL [3]: 121 CELLS/uL
BASOPHIL [3]: 0%
EOSINOPHIL [3]: 0%
ERYTHROCYTE COUNT [3]: 5.61 x10E6/uL
HEMATOCRIT [3]: 35.4%
HEMOGLOBIN [3]: 13.53 G/DL
LEUKOCYTE COUNT [3]: 6.07 x10E3/uL
LYMPHOCYTE [3]: 97%
MEAN CORPUSCULAR HEMOGLOBIN [3]: 24.13 pg
MEAN CORPUSCULAR HEMOGLOBIN CONCENTRATION [3]: 38.2 G/DL
MEAN CORPUSCULAR VOLUME [3]: 63.1 fL
MONOCYTE [3]: 1%
NEUTROPHIL [3]: 2%
NUCLEATED RED BLOOD CELLS [3]: 0 /100WBC
PLATELET COUNT [3]: 1005 x10E3/uL
ALANINE AMINOTRANSFERASE [3]: 73.33 u/L
ALBUMIN [3]: 4.33 G/DL
ALKALINE PHOSPHATASE [3]: 429.33 u/L
ASPARTATE AMINOTRANSFERASE [3]: 103.33 u/L
BLOOD UREA NITROGEN [3]: 13.67 mg/dL
CARBON DIOXIDE [3]: 31.67 mmol/L
CHLORIDE [3]: 97.5 MEQ/L
CHOLESTEROL [3]: 76.33 mg/dL
CREATINE PHOSPHOKINASE [3]: 504 u/L
CREATININE [3]: 0.1 mg/dL
GLUCOSE [3]: 139.67 mg/dL
LACTATE DEHYDROGENASE [3]: 137.67 u/L
LIPASE [3]: 11.67 u/L
PHOSPHORUS [3]: 9.73 mg/dL
POTASSIUM [3]: 5.46 MEQ/L
SODIUM [3]: 144.3 MEQ/L
TOTAL BILIRUBIN [3]: 0.13 mg/dL
TOTAL PROTEIN [3]: 6.27 G/DL
URIC ACID [3]: 0.57 mg/dL
